Measured values taken from ChEMBL document CHEMBL1201862, “PubChem BioAssay data set” (2004).
Activity calls are given as the source filed them.

Key:
Format in all cases: functional
[1] = target: T1, Tyrosine-protein kinase ITK/TSK (Homo sapiens, UniProt Q08881);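 note: affinity for ITK measured as one member of a broad kinase panel profiling binding across the kinome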
T1 sequence (Q08881 whole entry): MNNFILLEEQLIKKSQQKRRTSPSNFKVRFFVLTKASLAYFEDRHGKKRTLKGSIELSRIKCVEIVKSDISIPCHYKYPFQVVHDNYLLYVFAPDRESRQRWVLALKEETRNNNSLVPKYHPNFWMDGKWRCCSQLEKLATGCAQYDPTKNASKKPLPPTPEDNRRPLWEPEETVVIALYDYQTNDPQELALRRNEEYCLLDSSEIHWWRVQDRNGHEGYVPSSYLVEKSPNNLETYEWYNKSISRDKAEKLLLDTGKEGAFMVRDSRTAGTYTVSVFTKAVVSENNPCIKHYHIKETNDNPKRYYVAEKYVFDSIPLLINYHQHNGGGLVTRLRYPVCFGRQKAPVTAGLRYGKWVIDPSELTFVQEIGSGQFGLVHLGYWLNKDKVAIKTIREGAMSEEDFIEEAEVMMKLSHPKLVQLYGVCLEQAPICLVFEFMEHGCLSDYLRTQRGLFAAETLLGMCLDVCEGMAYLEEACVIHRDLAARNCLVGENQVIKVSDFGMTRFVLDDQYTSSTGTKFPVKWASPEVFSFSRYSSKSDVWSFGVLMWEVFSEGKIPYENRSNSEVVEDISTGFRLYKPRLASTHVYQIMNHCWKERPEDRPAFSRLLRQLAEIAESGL

[2] = target: Non-receptor tyrosine-protein kinase TYK2 (Homo sapiens, UniProt P29597)
Chain of Non-receptor tyrosine-protein kinase TYK2 (P29597 whole entry): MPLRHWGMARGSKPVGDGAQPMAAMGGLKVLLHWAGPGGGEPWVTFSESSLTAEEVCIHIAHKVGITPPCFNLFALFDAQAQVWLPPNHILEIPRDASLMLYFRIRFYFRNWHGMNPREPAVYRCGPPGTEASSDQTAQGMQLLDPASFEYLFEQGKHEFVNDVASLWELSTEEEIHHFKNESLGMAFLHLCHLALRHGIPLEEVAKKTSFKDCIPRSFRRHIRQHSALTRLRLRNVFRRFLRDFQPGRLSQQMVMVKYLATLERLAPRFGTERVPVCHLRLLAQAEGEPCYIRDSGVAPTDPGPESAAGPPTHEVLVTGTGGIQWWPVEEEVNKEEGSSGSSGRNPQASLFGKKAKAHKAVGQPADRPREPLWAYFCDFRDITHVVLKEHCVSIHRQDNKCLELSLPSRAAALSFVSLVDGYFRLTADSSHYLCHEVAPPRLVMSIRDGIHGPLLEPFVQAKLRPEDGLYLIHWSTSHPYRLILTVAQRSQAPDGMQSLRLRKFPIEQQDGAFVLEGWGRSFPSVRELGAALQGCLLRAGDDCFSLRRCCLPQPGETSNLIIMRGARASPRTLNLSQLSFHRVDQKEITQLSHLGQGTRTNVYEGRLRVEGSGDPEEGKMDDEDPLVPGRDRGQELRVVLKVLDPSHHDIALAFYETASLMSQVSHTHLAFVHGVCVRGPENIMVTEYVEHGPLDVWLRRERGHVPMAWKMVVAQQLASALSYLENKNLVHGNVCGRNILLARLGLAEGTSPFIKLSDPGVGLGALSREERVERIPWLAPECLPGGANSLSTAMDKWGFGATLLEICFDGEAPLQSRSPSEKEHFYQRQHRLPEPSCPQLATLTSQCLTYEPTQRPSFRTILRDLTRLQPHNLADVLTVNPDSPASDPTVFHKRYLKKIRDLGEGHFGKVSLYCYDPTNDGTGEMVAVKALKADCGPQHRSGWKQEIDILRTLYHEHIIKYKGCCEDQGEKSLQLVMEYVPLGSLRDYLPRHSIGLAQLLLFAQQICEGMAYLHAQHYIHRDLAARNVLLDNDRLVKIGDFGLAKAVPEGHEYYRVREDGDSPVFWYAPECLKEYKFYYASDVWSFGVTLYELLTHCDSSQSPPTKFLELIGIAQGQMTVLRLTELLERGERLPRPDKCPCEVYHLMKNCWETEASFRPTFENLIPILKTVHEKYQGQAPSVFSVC

[3] = target: Vascular endothelial growth factor receptor 3 (Homo sapiens, UniProt P35916);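 note: value from a kinome-wide profiling panel, with FLT4 as the panel member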
Chain of Vascular endothelial growth factor receptor 3 (P35916 whole entry): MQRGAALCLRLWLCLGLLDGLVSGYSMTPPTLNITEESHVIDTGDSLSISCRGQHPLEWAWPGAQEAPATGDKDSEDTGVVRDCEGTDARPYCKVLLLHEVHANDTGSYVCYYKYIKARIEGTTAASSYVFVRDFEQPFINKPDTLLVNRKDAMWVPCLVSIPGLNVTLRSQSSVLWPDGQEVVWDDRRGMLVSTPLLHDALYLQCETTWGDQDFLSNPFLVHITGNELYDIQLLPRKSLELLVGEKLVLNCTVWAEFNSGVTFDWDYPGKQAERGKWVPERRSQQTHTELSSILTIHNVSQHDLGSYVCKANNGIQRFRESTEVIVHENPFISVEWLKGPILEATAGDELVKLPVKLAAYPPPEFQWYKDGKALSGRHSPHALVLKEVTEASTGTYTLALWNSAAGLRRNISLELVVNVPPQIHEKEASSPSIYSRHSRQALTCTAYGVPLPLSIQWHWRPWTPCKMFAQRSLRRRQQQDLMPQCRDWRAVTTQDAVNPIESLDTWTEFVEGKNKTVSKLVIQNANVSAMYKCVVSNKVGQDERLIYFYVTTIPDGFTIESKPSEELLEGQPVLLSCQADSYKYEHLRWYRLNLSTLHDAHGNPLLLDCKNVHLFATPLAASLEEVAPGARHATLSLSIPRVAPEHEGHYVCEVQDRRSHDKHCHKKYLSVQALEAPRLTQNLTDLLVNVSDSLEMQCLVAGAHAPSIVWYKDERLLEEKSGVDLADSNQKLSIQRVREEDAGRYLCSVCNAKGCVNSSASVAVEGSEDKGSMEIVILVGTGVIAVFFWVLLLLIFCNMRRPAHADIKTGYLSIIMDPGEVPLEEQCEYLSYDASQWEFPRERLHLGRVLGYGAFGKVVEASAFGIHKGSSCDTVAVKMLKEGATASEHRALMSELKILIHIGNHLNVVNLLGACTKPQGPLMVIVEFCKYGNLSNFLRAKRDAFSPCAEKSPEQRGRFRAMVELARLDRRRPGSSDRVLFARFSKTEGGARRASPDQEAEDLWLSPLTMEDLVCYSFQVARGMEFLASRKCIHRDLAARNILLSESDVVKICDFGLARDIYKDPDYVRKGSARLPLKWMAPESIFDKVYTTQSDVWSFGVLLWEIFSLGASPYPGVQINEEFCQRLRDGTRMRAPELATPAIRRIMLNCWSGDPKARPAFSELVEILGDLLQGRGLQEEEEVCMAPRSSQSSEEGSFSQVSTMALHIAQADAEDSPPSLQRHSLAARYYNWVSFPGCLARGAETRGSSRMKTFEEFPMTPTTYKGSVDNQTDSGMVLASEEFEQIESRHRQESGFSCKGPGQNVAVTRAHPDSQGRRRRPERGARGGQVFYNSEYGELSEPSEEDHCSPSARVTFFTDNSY

[4] = target: T2, Interleukin-1 receptor-associated kinase 4 (Homo sapiens, UniProt Q9NWZ3)
T2 sequence (Q9NWZ3 whole entry): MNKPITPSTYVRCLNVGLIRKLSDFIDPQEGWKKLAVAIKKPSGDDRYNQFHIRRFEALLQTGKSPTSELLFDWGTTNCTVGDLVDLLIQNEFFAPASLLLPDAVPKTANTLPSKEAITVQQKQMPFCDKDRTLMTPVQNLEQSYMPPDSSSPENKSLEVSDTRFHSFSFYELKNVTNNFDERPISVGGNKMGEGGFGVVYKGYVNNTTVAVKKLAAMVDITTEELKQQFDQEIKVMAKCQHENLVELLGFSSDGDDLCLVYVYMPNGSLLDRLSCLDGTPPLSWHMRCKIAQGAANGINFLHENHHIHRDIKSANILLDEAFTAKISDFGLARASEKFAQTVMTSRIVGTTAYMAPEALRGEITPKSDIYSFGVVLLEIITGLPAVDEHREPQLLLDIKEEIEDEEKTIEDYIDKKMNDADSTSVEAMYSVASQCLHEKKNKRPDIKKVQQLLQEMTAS

[5] = target: Mast/stem cell growth factor receptor Kit (Homo sapiens, UniProt P10721);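 note: KIT entry within a kinase panel assay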
Aurora kinase B = Aurora kinase B (Homo sapiens, UniProt Q96GD4)
[6] = target: Mitogen-activated protein kinase 8 (Homo sapiens, UniProt P45983);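 note: value comes from one member of a kinome-wide kinase profiling panel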
Chain of Mitogen-activated protein kinase 8 (P45983 whole entry): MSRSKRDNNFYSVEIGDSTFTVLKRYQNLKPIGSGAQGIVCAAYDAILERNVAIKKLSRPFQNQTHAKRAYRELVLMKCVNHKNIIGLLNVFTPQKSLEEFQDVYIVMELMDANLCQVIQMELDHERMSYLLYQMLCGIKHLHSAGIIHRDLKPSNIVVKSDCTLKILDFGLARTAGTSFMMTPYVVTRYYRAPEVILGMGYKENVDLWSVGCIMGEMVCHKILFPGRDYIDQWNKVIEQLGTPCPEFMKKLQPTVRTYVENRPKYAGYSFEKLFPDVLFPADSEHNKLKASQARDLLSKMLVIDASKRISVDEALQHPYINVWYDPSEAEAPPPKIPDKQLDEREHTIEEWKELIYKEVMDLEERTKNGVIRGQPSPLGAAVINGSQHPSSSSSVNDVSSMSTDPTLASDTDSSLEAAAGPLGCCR

[7] = target: Mitogen-activated protein kinase 1 (Homo sapiens, UniProt P28482)
Chain of Mitogen-activated protein kinase 1 (P28482 whole entry): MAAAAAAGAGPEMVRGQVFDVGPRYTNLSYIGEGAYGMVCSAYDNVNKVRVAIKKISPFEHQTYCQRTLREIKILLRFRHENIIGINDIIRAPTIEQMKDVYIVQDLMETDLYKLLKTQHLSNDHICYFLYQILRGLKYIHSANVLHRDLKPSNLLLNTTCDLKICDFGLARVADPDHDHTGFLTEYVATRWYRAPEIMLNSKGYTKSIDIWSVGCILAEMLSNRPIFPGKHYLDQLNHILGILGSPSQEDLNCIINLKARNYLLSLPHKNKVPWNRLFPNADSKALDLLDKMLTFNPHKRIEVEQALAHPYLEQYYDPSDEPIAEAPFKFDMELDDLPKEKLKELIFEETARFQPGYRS

[8] = target: T3, Tyrosine-protein kinase JAK3 (Homo sapiens, UniProt P52333)
T3 sequence (P52333 whole entry): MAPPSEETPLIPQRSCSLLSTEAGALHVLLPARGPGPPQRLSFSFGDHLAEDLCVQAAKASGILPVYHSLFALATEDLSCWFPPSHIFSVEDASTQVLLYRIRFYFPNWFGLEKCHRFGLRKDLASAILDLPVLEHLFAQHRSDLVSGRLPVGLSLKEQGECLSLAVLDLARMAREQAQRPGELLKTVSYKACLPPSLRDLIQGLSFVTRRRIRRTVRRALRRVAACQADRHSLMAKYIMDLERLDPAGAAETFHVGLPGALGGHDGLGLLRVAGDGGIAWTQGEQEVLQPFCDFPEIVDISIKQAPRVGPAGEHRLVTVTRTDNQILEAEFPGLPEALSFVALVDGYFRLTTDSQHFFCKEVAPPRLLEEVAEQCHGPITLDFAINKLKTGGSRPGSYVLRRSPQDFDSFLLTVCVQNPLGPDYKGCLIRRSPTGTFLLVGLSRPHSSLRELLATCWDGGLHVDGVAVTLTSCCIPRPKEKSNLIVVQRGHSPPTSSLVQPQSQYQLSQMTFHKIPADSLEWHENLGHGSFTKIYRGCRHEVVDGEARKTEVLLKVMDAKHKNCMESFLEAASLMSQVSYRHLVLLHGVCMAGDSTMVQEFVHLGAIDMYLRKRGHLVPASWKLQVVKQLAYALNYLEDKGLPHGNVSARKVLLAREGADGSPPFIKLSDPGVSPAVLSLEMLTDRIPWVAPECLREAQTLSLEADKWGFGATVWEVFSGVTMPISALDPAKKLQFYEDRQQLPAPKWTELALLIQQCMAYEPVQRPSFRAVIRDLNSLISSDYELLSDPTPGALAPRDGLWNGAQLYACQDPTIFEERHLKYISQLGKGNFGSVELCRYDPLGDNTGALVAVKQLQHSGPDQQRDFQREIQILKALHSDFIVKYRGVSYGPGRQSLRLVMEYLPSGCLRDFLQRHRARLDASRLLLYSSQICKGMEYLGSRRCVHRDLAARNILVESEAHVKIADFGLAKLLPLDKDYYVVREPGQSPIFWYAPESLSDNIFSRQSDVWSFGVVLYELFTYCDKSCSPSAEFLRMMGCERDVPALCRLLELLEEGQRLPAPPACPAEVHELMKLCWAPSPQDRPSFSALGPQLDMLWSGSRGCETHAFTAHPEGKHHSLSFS

[9] = target: Proto-oncogene tyrosine-protein kinase Src (Homo sapiens, UniProt P12931);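 note: SRC entry within a kinome-wide kinase profiling panel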
[10] = target: Calcium/calmodulin-dependent protein kinase type 1 (Homo sapiens, UniProt Q14012)
[11] = target: Insulin-like growth factor 1 receptor (Homo sapiens, UniProt P08069); test: Navigating the Kinome. Panel member name: IGF1R
[12] = target: Macrophage colony-stimulating factor 1 receptor (Homo sapiens, UniProt P07333);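 note: value comes from the Navigating the Kinome screening panel, CSF1R member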
Chain of Macrophage colony-stimulating factor 1 receptor (P07333 whole entry): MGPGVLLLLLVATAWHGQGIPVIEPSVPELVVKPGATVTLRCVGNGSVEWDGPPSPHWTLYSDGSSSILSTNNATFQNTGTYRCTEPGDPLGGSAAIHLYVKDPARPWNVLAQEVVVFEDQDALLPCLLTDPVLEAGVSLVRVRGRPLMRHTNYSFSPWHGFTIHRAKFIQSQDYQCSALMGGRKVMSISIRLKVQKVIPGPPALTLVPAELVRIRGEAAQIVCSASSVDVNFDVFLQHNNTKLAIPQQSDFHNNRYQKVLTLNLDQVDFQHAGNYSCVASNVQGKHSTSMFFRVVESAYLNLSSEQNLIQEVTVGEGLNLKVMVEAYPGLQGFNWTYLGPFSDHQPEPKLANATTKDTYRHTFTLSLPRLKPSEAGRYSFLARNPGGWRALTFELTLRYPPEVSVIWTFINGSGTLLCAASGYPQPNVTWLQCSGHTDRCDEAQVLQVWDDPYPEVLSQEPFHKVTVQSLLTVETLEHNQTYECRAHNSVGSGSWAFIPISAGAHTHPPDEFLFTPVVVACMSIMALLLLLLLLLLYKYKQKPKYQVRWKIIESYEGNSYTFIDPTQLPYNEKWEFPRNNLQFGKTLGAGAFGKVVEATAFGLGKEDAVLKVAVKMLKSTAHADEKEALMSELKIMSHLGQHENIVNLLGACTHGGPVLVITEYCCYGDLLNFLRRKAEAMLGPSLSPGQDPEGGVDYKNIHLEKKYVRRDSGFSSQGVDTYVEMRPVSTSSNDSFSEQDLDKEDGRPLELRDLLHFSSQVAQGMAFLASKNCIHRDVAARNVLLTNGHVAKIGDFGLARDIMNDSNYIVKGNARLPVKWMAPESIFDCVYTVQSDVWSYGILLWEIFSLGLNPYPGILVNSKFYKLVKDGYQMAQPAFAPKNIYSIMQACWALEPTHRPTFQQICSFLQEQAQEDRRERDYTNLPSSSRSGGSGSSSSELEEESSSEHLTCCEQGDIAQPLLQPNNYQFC

[13] = target: MAP/microtubule affinity-regulating kinase 3 (Homo sapiens, UniProt P27448);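 note: MARK3 affinity measured as one member of a kinome panel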
[14] = target: Ribosomal protein S6 kinase beta-1 (Homo sapiens, UniProt P23443);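 note: measured as one member of a kinome-wide profiling panel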
Chain of Ribosomal protein S6 kinase beta-1 (P23443 whole entry): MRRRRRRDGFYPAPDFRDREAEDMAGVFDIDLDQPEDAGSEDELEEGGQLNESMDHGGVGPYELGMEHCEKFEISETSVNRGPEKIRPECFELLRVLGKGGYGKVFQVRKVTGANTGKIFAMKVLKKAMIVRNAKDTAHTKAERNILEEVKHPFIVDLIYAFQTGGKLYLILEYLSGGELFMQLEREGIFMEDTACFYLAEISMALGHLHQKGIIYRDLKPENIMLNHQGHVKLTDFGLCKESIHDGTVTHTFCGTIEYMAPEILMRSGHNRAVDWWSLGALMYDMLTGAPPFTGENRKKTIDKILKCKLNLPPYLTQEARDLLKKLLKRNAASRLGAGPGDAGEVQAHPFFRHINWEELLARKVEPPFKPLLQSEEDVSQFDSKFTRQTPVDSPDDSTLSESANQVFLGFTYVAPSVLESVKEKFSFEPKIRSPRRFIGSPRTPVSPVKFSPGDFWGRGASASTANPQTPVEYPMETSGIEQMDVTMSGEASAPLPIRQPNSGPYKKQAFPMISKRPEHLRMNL

[15] = target: MAP kinase-activated protein kinase 2 (Homo sapiens, UniProt P49137);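 note: measured as one member of a kinome-wide kinase panel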

Row | SMILES | Ki [1] | Ki [2] | Ki [3] | Ki [4] | Ki [5] | Ki (Aurora kinase B) | Ki [6] | Ki [7] | Ki [8] | Ki [9] | Ki [10] | Ki [11] | Ki [12] | Ki [13] | Ki [14] | Ki [15]
1 | Cc1n[nH]c2cnc(-c3cncc(OCC(N)Cc4cccc(C(F)(F)F)c4)c3)cc12 (configuration not stated) | > 1580 nM (inactive) | > 2000 nM (inactive) | 3160 nM (active) | 398 nM (active) | > 1260 nM (inactive) | 3160 nM (active) | > 3160 nM (inactive) | 631 nM (active) | 1260 nM (active) | > 2000 nM (inactive) | 501 nM (active) | > 2000 nM (inactive) | > 2510 nM (inactive) | 63.1 nM (active) | 12.6 nM (active) | 1580 nM (active)
2 | Cc1c(C=O)c(O)n2c(nc3ccccc32)c1C#N | 398 nM (active) | > 2000 nM (inactive) | 794 nM (active) | 3980 nM (active) | > 1260 nM (inactive) | 6310 nM (active) | > 3160 nM (inactive) | > 7940 nM (inactive) | 100 nM (active) | 1580 nM (active) | > 7940 nM (inactive) | > 1000 nM (inactive) | > 2510 nM (inactive) | > 6310 nM (inactive) | 1260 nM (active) | > 7940 nM (inactive)
